{"source": "patent US4108986A", "about": "“N^2 -Arylsulfonyl-L-argininamides and the pharmaceutically acceptable salts thereof” (Mitsubishi Chemical Industries Limited, priority 1974, dated 1978)", "data": [{"biological_target": "T1, thrombin (Bos taurus, UniProt P00735)", "T1 construct": "purchased Mochida Pharmaceutical Co., Ltd", "experiment": "fibrinogen coagulation time (thrombin added to bovine fibrinogen solution)", "assay_type": "biochemical", "conditions": "thrombin 5 units/ml, borate saline buffer pH 7.4, 25° C, normal coagulation time 50-55 seconds prolonged to 100-110 seconds", "description": "The measurement of the fibrinogen coagulation time was conducted as follows:\nImmediately after mixing, the reaction mixture was transferred from the ice bath to a bath maintained at 25° C. Coagulation times were taken as the period between the time of transference to the 25° C bath and the time of the first appearance of fibrin threads.\nThe term \"concentration required to prolong the coagulation time by a factor of two\" is the concentration of an active ingredient required to prolong the normal coagulation time 50-55 seconds to 100-110 seconds.", "units": {"Concentration required to prolong the coagulation time by a factor of two": "µM"}, "values": [{"smiles": "CCCCCN(C(=O)[C@H](CCCNC(=N)N)NS(=O)(=O)c1ccc2cc(OC)c(OC)cc2c1)[C@@H](C)C(=O)O", "note": "[compound 4, N^2-(6,7-dimethoxy-2-naphthylsulfonyl)-L-arginyl-N-pentylalanine]", "Concentration required to prolong the coagulation time by a factor of two": 2.0}, {"smiles": "COc1cc2ccc(S(=O)(=O)N[C@@H](CCCNC(=N)N)C(=O)N(Cc3ccccc3)[C@@H](C)C(=O)O)cc2cc1OC", "note": "[compound 6, N^2-(6,7-dimethoxy-2-naphthylsulfonyl)-L-arginyl-N-benzylalanine]", "Concentration required to prolong the coagulation time by a factor of two": 2.5}, {"smiles": "COc1cc2ccc(S(=O)(=O)N[C@@H](CCCNC(=N)N)C(=O)N(CCc3ccccc3)[C@@H](C)C(=O)O)cc2cc1OC", "note": "[compound 8, N^2-(6,7-dimethoxy-2-naphthylsulfonyl)-L-arginyl-N-phenethylalanine]", "Concentration required to prolong the coagulation time by a factor of two": 1.5}, {"smiles": "COc1ccc2cc(S(=O)(=O)N[C@@H](CCCNC(=N)N)C(=O)N(CC3CCCCC3)[C@@H](C)C(=O)O)cc(OC)c2c1", "note": "[compound 12, N^2-(4,6-dimethoxy-2-naphthylsulfonyl)-L-arginyl-N-cyclohexylmethylalanine]", "Concentration required to prolong the coagulation time by a factor of two": 4.5}, {"smiles": "COCCN(C(=O)[C@H](CCCNC(=N)N)NS(=O)(=O)c1ccc2cc(OC)c(OC)cc2c1)[C@@H](C)C(=O)O", "note": "[compound 15, N^2-(6,7-dimethoxy-2-naphthylsulfonyl)-L-arginyl-N-(2-methoxyethyl)alanine]", "Concentration required to prolong the coagulation time by a factor of two": 5}, {"smiles": "COc1cc2ccc(S(=O)(=O)N[C@@H](CCCNC(=N)N)C(=O)N(C)[C@@H](Cc3ccccc3)C(=O)O)cc2cc1OC", "note": "[compound 18, N^2-(6,7-dimethoxy-2-naphthylsulfonyl)-L-arginyl-N-methylphenylalanine]", "Concentration required to prolong the coagulation time by a factor of two": 2}, {"smiles": "COc1ccc2ccc(S(=O)(=O)N[C@@H](CCCNC(=N)N)C(=O)N(C)[C@@H](Cc3ccccc3)C(=O)O)cc2c1", "note": "[compound 20, N^2-(7-methoxy-2-naphthylsulfonyl)-L-arginyl-N-methyl-phenylalanine]", "Concentration required to prolong the coagulation time by a factor of two": 2.5}, {"smiles": "CCC[C@H](NC(=O)[C@H](CCCNC(=N)N)NS(=O)(=O)c1ccc2cc(OC)c(OC)cc2c1)C(=O)O", "note": "[compound 21, N^2-(6,7-dimethoxy-2-naphthylsulfonyl)-L-arginylnorvaline]", "Concentration required to prolong the coagulation time by a factor of two": 15}]}, {"test_system": "mice", "experiment": "acute toxicity (LD50), intraperitoneal administration in mice", "assay_type": "in vivo", "conditions": "mice (male, 20 g)", "source_text": "Representative LD50 values, for example, for N^2 -(6,7-dimethoxy-2-naphthylsulfonyl)-L-arginyl-N-butylalanine and N^2 -(4,6-dimethoxy-2-naphthylsulfonyl)-L-arginyl-N-cyclohexylmethylalanine are above 1,500 milligrams per kilogram each.", "values": [{"smiles": "CCCCN(C(=O)[C@H](CCCNC(=N)N)NS(=O)(=O)c1ccc2cc(OC)c(OC)cc2c1)[C@@H](C)C(=O)O", "note": "[compound 2, N^2-(6,7-dimethoxy-2-naphthylsulfonyl)-L-arginyl-N-butylalanine]", "acute toxicity values (LD50)": "above 1,500 milligrams per kilogram"}, {"smiles": "COc1ccc2cc(S(=O)(=O)N[C@@H](CCCNC(=N)N)C(=O)N(CC3CCCCC3)[C@@H](C)C(=O)O)cc(OC)c2c1", "note": "[compound 12, N^2-(4,6-dimethoxy-2-naphthylsulfonyl)-L-arginyl-N-cyclohexylmethylalanine]", "acute toxicity values (LD50)": "above 1,500 milligrams per kilogram"}]}]}
